Patent publication US10294272B2, “Peptides with antagonistic activities against natural CXCR4” (Pharis Biotec GmbH, priority 2013, dated 2019)
No end group written: not given here.

Legend:
CXCR4 [1] = biological target: T1, CXCR4 (Mus musculus, UniProt P70658); assay: Progenitor cell mobilization in mice; format: in vivo; settings: single i.p. administration
T1 construct: from tissue; host or cells: live mice (C57Bl/6J for mobilization)
Method: C57B1/6J mice (Janvier, Le Genest St. Isle, F R) were housed in the conventional vivarium of the Goethe-University Medical Center, Frankfurt, with food and water ad libitum. Mice received i.p. injections of 200 μL water or normal saline containing 10 mg/mL the peptide of SEQ ID NO 16. Blood was drawn at the indicated times following injection from the check pouch after careful skin disinfection. After hypotonic lysis, leukocytes were incubated in duplicate in cytokine-replete commercially available semi-solid media (3434, Stem Cell Technologies, Vancouver, B C) under standard conditions. CFU—C were scored on day 7, as described (Bönig et al., 2006). CFU—C were normalized to the blood volume incubated. All animal studies were done with permission of the local IACUC, in agreement with AAALAC guidelines.

Jurkat T cells = assay: CXCL12-induced migration of Jurkat T cells; format: cell-based
Method: Migration of Jurkat cells (ATCC) was analyzed using 6.5 mm diameter chambers with 5 μm pore filters (Transwell, 24-well cell culture, Coster, Boston, Mass.). 2×10^5 Jurkat cells were suspended in 200 μl Optimizer T-Cell Expansion SFM, and the cell suspensions were added to the upper chamber. Then, 10 nM CXCL12 (R&D System) and/or various concentrations of the peptide of SEQ ID NO 16 or its derivatives in 600 μl T-Cell Expansion SFM were added to the lower chamber. The cell culture chambers were incubated for 150 min in a cell culture incubator at 37° C. After incubation, chambers were removed, 100 μl of supernatants were taken and cells that migrated into the lower compartment were either counted directly using a hemocytometer or analyzed using the CellTiter-Glo Luminescent Cell Viability Assay as described above. All values represent mean numbers of migrated cells relative to CXCL12 only treated cells from a triplicate experiment±SD.

other GPCRs = assay: GPCR antagonist screen; settings: selectivity for CXCR4
From the text: GPCR Antagonist Screen of the Peptide of SEQ ID NO 16

CD34+ human stem cells = assay: CXCL12-induced migration of CD34+ human stem cells; format: cell-based
Method: Peripheral hematopoietic stem (PHS) cells isolated by apheresis of Granulo-cyte colony-stimulating factor (G-CSF) treated individuals were obtained from the Institute of Transfusion Medicine, University Hospital Ulm). Frozen cells were carefully thawed in 1/10 diluted 10% ACD-A buffer (provided by the Institute of Transfusion Medicine) in PBS. 1×10^5/200 μl PHS cells were placed into the upper chamber of transwell plates. Then, 10 nM CXCL12 and/or various concentrations of the peptide of SEQ ID NO 16 or its derivatives in 600 μl culture medium were placed to each well. After 3 h, the chemotaxis was measured using the CellTiter-Glo Luminescent Cell Viability Assay as described above. All values represent mean numbers of migrated cells relative to CXCL12 only treated cells from a triplicate experiment±SD.

CXCR4 [2] = biological target: T2, CXCR4 (Homo sapiens, UniProt P61073); assay: Competition with CXCL12 binding to CXCR4 (real-time fluorescence, eGFP-CXCR4 cells); settings: read-out: dissociation constant (DC50), competition with CXCL12 binding to CXCR4
T2 construct: expressed in transfected cells
T2 sequence (P61073 whole entry): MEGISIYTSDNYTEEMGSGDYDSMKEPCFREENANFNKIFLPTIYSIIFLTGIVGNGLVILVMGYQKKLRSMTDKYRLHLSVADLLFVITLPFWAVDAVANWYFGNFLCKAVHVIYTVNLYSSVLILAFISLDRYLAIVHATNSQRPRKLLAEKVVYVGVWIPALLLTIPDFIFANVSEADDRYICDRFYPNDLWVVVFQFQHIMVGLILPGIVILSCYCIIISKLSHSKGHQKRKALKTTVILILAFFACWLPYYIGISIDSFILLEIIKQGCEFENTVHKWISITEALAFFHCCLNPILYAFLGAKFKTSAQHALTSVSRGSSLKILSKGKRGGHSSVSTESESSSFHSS
Method: Anti-human CXCR4 (clone 12G5, IgG2a) or anti-human CXCR7 (clone 9C4) monoclonal antibodies (mAbs) were purchased from R&D Systems (Minneapolis, Minn.). […] The human chemokines CXCL12 and CXCL12-TexasRed were synthesized as described (Valenzuela-Fernandez, et al. 2001). The human chemokine CXCL11 was purchased from Clinisciences SAS (France).
Experiments were performed using cells stably expressing eGFP-CXCR4, suspended in HEPES-bovine serum albumin buffer (10 mM HEPES, 137.5 mM NaCl, 1.25 mM MgCl2, 1.25 mM CaCl2, 6 mM KCl, 10 mM glucose, 0.4 mM NaH2PO4, 0.1% bovine serum albumin (w/v), pH 7.4) (typically at 10^6 cells/mL). Time-based recordings of the fluorescence emitted at 510 nm (excitation at 470 nm) were performed at 21° C. using a spectrofluorimeter and sampled every 0.3 s. Fluorescence binding measurements were initiated by adding at 30 s 100 nM of CXCL12-TR to the 1 mL cell suspension. For competition experiments, EGFP-CXCR4 expressing cells were preincubated for 10 min in the absence or presence of various concentrations of unlabelled drugs. Then, CXCL12-TR (100 nM) was added and fluorescence was recorded until equilibrium was reached (300 s). Data were analyzed using Kaleidagraph 3.08 software (Synergy Software, Reading, Pa., USA).

[3] = Transplantation of mobilized cells; format: in vivo
Method: […] animals were injected with the peptide of SEQ ID NO 16 (2 mg i.p in saline) or controls saline. Peripheral blood was individually harvested 1 hour post injection, counted, combined and competitively transplanted (660 μl blood equivalent) alongside 4×10^5 C57BL/6 CD45.1 BM cells into C57BL/6 Cd45.1 recipients.

X4 HIV-1 strains = tested on: X4 HIV-1 strains
Method: (§1) Antiviral screening was performed using the X4 HIV-1 NL4-3 molecular clone.
(§2) HIV-1, HIV-2 and SIV molecular clones differing in coreceptor tropism were generated by transient transfection of 293T cells with proviral DNA by the calcium phosphate method (CalPhos™ Mammalian Transfection Kit, Clon-tech). After overnight incubation, the transfection mixture was replaced by DMEM medium supplemented with 10% FCS, and virus stocks were harvested 48 hrs post-transfection. Subsequently, the culture supernatant was centrifuged for 5 min at 3000 rpm to remove cell debris. The resulting virus stock was quantified by p24 (HIV) or p27 (SIV) antigen ELISA. Virus stocks were either used immediately or stored in aliquots at −80° C.
(§3) TZM-bl reporter cells containing the LacZ reporter gene under the control of the HIV-1 promoter were seeded in 96-well F-bottom microtiter plates (Greiner Bio-One). On the following day, the cells were preincubated with various dilutions of the peptide of SEQ ID NO 16 or its derivatives for 1 hour and subsequently infected with HIV-1, HIV-2, and SIV. Infection rates were determined after 2 days using the one-step Tropix Gal-Screen Kit, as recommended by the manufacturer.

X4 tropic HIV-1 NL4-3 = settings: blocking X4 tropic HIV-1 NL4-3 infection
Method: as §1, §2, §3

X4 HIV-2 strains = assay: TZM-bl infection assay, X4 HIV-2; format: cell-based; settings: effects relatively modest
Method: as §2, §3

T1 sequence (P70658 whole entry): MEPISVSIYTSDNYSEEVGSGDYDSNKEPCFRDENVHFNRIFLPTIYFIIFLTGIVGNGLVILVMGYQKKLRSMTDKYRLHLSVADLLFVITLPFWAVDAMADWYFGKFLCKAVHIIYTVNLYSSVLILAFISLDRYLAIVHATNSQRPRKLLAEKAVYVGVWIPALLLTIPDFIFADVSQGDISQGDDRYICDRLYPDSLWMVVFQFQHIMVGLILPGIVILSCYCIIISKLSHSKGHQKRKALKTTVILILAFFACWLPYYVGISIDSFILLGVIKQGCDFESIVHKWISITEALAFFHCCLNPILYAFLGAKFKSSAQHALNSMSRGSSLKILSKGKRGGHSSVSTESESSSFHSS

LVRYTKKVPQVSTPTL [Derivative 408-423, LVRYTKKVPQVSTPTL]
mobilization of progenitor cells and neutrophils into the periphery (CXCR4 [1]): significant mobilization
CXCL12-induced migration of Jurkat T cells (Jurkat T cells): suppressed
activity of a large number of other GPCRs (other GPCRs): not affected
CXCL12-induced migration of CD34+ human stem cells (CD34+ human stem cells): suppressed
DC50 (CXCR4 [2]): 8 ± 3 µM
engraftment rates after transplantation of cells from treated mice [3]: increased engraftment rates
mean 50% inhibitory concentration (IC50), infection by X4 HIV-1 strains (X4 HIV-1 strains; mean over X4 HIV-1 strains, chemically synthesized peptide): 15.8 µg/mL
HIV infection after pretreatment of viral target cells (not of virions) (X4 HIV-1 strains; pretreatment of target cells): effective reduction
IC50 (X4 HIV-1 strains; read-out: mean 50% inhibitory concentration (IC50), infection by X4 HIV-1 strains, corresponding to 15.8 μg/ml): 8.6 µM
IC50 (X4 tropic HIV-1 NL4-3): 8.63 µM
infection by X4 HIV-2 strains (X4 HIV-2 strains): inhibits infection
